This note sets out measurements from US20140349994A1, “Novel 2-Amino-4,5,6,8-Tetrahydropyrazolo[3,4-b]Thiazolo [4,5-d]Azepine Derivatives and Their Use as Allosteric Modulators of Metabotropic Glutamate Receptors” (Addex Pharma S.A., priority 2012, published 2014).

Data set [1] addresses T1, recombinant human mGluR4a receptors (Homo sapiens, UniProt Q14833).
T1 construct: expressed in transfected cells
In words: mGluR4 assay on HEK-expressing human mGluR4: fluorescent cell based Ca2+ mobilization assay (FLIPR). The conditions noted are these: HEK-293 cells expressing hmGluR4; enhancement of EC25 glutamate response; mean of at least three independent experiments in duplicate; read-out: Ca^2+ Flux (mean EC50). From the text:
mGluR4 Assay on HEK-Expressing Human mGluR4
The compounds of the present invention are positive allosteric modulators of mGluR4 receptor. Their activity was examined on recombinant human mGluR4a receptors by detecting changes in intracellular Ca^2+ concentration, using the fluorescent Ca^2+-sensitive dye Fluo4-(AM) and a Fluorometric Imaging Plate Reader (FLIPR, Molecular Devices, Sunnyvale, Calif.).
The cDNA encoding the human metabotropic glutamate receptor (hmGluR4), (accession number NM 000841.1, NCBI Nucleotide database browser), was subcloned into an expression vector containing also the hygromycin resistance gene. In parallel, the cDNA encoding a G protein allowing redirection of the activation signal to intracellular calcium flux was subcloned into a different expression vector containing also the puromycin resistance gene. Transfection of both these vectors into HEK293 cells with PolyFect reagent (Qiagen) according to supplier's protocol, and hygromycin and puromycin treatment allowed selection of antibiotic resistant cells which had integrated stably one or more copies of the plasmids. Positive cellular clones expressing hmGluR4 were identified in a functional assay measuring changes in calcium fluxes in response to glutamate or selective known mGluR4 orthosteric agonists and antagonists.
HEK-293 cells expressing hmGluR4 were maintained in media containing DMEM, dialyzed Fetal Calf Serum (10%), Glutamax™ (2 mM), Penicillin (100 units/mL), Streptomycin (100 μg/mL), Geneticin (100 μg/mL) and Hygromycin-B (40 μg/mL) and puromycin (1 μg/mL) at 37° C.5% CO2.
Human mGluR4 HEK-293 cells were plated out 24 hours prior to FLIPR^384 assay in black-walled, clear-bottomed, poly-L-ornithine-coated 384-well plates at a density of 25,000 cells/well in a glutamine/glutamate free DMEM medium containing foetal bovine serum (10%), penicillin (100 units/mL) and streptomycin (100 μg/mL) at 37° C.5% CO2.
On the day of the assay, the medium was aspirated and the cells were loaded with a 3 μM solution of Fluo4-AM (LuBioScience, Lucerne, Switzerland) in 0.03% pluronic acid. After 1 hour at 37° C. 5% CO2, the non incorporated dye was removed by washing cell plate with the assay buffer and the cells were left in the dark at room temperature for six hours before testing. All assays were performed in a pH 7.4 buffered-solution containing 20 mM HEPES, 143 mM NaCl, 6 mM KCl, 1 mM MgSO4, 1 mM CaCl2, 0.125 mM sulfapyrazone and 0.1% glucose.
After 10 s of basal fluorescence recording, various concentrations of the compounds of the invention were added to the cells. Changes in fluorescence levels were first monitored for 180 s in order to detect any agonist activity of the compounds. Then the cells were stimulated by an EC25 glutamate concentration for an additional 110 s in order to measure enhancing activities of the compounds of the invention. EC25 glutamate concentration is the concentration giving 25% of the maximal glutamate response.
The concentration-response curves of representative compounds of the present invention were generated using the Prism GraphPad software (Graph Pad Inc, San Diego, USA). The curves were fitted to a four-parameter logistic equation:
(Y=Bottom+(Top-Bottom)(1+10̂((Log EC50−X)*Hill Slope)
allowing the determination of EC50 values.
The Table 3 below represents the mean EC50 obtained from at least three independent experiments of selected molecules performed in duplicate.

In general, EC50 refers to the concentration that produces a half-maximal response. Broadly, the melting point is the temperature, or range, at which the solid turns liquid.

T1 sequence (Q14833 33-912): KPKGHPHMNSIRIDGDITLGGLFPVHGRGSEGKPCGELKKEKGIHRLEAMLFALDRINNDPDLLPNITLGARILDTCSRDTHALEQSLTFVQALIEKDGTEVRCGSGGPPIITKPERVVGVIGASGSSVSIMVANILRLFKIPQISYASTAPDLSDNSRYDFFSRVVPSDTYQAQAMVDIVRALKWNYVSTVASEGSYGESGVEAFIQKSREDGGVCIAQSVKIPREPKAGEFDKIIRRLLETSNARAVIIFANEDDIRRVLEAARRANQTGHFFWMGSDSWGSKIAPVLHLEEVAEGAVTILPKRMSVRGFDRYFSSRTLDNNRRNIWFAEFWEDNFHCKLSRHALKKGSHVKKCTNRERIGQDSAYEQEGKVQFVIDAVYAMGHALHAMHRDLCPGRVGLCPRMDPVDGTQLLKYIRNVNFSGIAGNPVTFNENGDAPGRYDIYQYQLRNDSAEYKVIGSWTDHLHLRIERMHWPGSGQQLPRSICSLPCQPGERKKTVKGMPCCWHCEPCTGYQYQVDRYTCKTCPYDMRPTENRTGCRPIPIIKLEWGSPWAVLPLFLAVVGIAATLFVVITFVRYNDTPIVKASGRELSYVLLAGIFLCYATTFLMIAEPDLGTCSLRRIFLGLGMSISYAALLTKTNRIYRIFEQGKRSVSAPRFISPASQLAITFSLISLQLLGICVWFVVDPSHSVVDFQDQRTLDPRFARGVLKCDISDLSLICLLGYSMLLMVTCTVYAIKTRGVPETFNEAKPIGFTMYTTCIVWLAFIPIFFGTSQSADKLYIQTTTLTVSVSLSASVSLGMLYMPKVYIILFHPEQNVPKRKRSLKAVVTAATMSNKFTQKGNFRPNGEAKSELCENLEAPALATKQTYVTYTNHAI

The compound `FCCN1CCc2sc(Nc3ncc(F)cn3)nc2-c2cn[nH]c21` [Compound 1-137] showed a melting point of 283 to 286 °C. In addition, the EC50 in data set [1] is less than 100 nM.

Regarding `Cc1ccnc(Nc2nc3c(s2)CCN(CCCN2CCOCC2)c2[nH]ncc2-3)n1` [Compound 1-145], the melting point was 251 °C. For the same compound, the concentration giving a half-maximal response (EC50) in data set [1] is less than 100 nM.

On to `Fc1cnc(Nc2nc3c(s2)CCN(CCCN2CCCCC2)c2[nH]ncc2-3)nc1` [Compound 1-144], for which the melting point was 227 °C. Moreover, the half-maximal effective concentration (EC50) in data set [1] was 100 to 1000 nM.

Compound `COCC(C)N1CCc2sc(Nc3ncc(F)cn3)nc2-c2cn[nH]c21` (stereo not shown) [Compound 1-125] showed a melting point of 212 to 215 °C. Also, the EC50 in data set [1] was less than 100 nM.

`COCCOCCN1CCc2sc(Nc3ncc(F)cn3)nc2-c2cn[nH]c21` [Compound 1-133] had a melting point greater than 220 °C. In data set [1], the EC50 was less than 100 nM.
